# From ChEMBL document CHEMBL1141894, “Synthesis and biological properties of novel sphingosine derivatives” (Bioorg Med Chem Lett, 2005)
# Tested on: HL-60
# Test: Inhibitory concentration against [Ca2+] ion increase in HL60 cell induced by natural sphingosine-1-phosphate
# Assay type: functional, cell-based
# Conditions: Homo sapiens
row,SMILES,IC50 [nM]
1,CCCCCCCCCCCCC/C=C/[C@H](O)[C@@H](N)COP(=O)(O)O,31
2,CCCCCCCCCC/C=C/[C@H](O)[C@@H](N)COP(=O)(O)O,15
3,N[C@@H](CBr)[C@@H](O)c1ccccc1,71
4,CSc1ccc([C@H](O)[C@@H](N)CBr)cc1,18

# The next lines start with the values.
row,IC50 [nM],SMILES
1,179,N[C@@H](COP(=O)(O)O)[C@@H](O)c1ccccc1
2,56,N[C@@H](COP(=O)(O)O)[C@@H](O)c1ccc([N+](=O)[O-])cc1
3,37,N[C@@H](COP(=O)(O)O)[C@@H](O)/C=C/c1ccccc1
4,15,CSc1ccc([C@H](O)[C@@H](N)COP(=O)(O)O)cc1
